Experiments:
[1] = molecular target: PKCβ (Homo sapiens, UniProt P05771); details: cited from earlier work
[2] = molecular target: PKCδ (Homo sapiens, UniProt Q05655); details: cited from earlier work
[3] = molecular target: T1, PKCζ (Homo sapiens, UniProt Q05513); details: cited from earlier work
T1 sequence (Q05513 1-592): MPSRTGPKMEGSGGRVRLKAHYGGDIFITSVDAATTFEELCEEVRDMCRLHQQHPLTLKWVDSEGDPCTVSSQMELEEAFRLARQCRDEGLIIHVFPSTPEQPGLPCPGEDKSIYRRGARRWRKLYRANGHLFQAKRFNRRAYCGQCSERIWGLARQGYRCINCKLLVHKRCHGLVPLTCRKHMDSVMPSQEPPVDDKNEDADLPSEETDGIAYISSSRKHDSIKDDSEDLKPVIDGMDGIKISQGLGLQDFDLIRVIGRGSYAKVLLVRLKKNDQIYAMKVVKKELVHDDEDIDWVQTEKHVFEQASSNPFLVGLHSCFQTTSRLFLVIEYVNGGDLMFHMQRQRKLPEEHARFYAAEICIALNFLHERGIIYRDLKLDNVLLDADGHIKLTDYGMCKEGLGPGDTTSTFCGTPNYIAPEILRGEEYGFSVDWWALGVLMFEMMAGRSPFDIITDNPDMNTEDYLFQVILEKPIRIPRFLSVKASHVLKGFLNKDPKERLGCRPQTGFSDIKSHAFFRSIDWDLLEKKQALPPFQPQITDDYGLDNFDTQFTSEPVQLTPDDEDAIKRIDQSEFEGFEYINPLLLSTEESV

[4] = test system: cardiac myocytes; test: Measurement of myocardial contractility (video-based edge detection); type: cell-based, Sprague-Dawley (SD) rat; details: 100 nM for 30 minutes
Text: The sequence of a peptide inhibitor was designed based on the experiment of Daria Mochly-Rosen^11-13. The amino acid sequences of the protein kinase C ζ (PKCζ) inhibitor are described as SEQ ID NO: 1 and SEQ ID NO: 2. They are called the pseudosubstrate region. In contrast, the amino acid sequence of the PKCα inhibitor is QLVIAN. Each peptide inhibitor is linked at the amino-end with the TAT peptide YGRKKRRQRRR via the GGG bridge. As a normal group for comparison, a peptide comprising the TAT amino acid sequence was used. Cardiac myocytes isolated from 10-week-old Sprague-Dawley (SD) rat were used to test the efficiency of the peptide inhibitor. […]
The cardiac myocytes were isolated based on the modification of the Ren's method^14. 10-week-old male SD rats (250-300 g) were used for the experiment. After injecting heparin (50 unit), the test animal was anesthetized with isoflurane and the heart was taken out immediately. The heart was connected to a pump and Tyrode's buffer [137 mM NaCl, 5.4 mM KCl, 1 mM MgCl2, 10 mM glucose, 10 mM HEPES, 10 mM 2,3-butanedione monoxime and 5 mM taurine (Sigma), pH 7.4] at 37° C. was supplied through the coronary artery. After removing blood from the heart by pumping for 5 minutes, intercellular adhesion molecules were digested by perfusing enzyme solution [collagenase type B (0.35 U/mL, Roche), hyaluronidase (0.1 mg/mL, Sigma)] through the coronary artery. After sufficient digestion through perfusion for 20 minutes, the heart was stabilized and protected from the enzymes in 0.5% BSA solution. In all the experiments, only the rod-shaped, healthy cardiac myocytes with a distinct striation pattern were used.
The entire culture procedure was carried out in a class II flow hood. Culture dishes were precoated for 1 hour with 40 µg/mL mouse laminin (BD Biosciences) at room temperature. The isolated cardiac myocytes were cultured in Dulbecco's minimal essential medium (HyClone) containing 50 units/mL penicillin, 50 μg/mL streptomycin, 5 mM taurine, […] and […]. The cardiac myocytes were stabilized for 2 hours in a 5% CO2 incubator at 37° C., and then myocardial contractility was measured.
Myocardial contractility was measured using a video-based edge detection system (IonOptix; Milton, Mass.)^15. The cultured cardiac myocytes were placed on a over slip and observed under an inverted microscope (Nikon Eclipse TE-100F). To the cardiac myocytes, Tyrode's buffer (137 mM NaCl, 5.4 mM KCl, 1 mM MgCl2, 10 mM glucose and 10 mM HEPES, pH 7.4) was continuously supplied (at 37° C., at a rate of ˜1 mL/min). The cells were stimulated with a voltage of 30 V at 1 Hz. A STIM-AT stimulator/thermostat was used. […] The motion was recorded at every 8.3 ms. The recorded motion of the cardiac myocytes was analyzed with the soft-edge software (IonOptix).

Sequence of PKCδ (Q05655 whole entry): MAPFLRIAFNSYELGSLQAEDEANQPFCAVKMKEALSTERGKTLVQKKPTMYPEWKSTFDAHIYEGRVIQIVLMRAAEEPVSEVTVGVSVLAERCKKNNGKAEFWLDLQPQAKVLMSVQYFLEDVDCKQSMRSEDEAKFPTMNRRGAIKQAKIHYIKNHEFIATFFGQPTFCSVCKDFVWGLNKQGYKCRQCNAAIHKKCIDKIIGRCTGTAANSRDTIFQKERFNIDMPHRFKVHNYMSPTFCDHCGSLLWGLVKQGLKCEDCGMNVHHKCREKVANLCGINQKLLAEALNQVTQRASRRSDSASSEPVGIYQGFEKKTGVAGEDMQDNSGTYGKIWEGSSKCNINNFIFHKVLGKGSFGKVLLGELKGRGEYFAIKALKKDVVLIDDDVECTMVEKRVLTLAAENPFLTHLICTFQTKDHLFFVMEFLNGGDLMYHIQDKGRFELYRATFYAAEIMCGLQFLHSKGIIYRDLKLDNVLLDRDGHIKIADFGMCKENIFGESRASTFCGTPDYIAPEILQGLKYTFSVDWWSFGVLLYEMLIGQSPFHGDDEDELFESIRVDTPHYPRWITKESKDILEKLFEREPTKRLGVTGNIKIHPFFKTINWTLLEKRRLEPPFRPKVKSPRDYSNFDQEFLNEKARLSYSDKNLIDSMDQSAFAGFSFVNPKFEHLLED
Sequence of PKCβ (P05771 whole entry, species assumed): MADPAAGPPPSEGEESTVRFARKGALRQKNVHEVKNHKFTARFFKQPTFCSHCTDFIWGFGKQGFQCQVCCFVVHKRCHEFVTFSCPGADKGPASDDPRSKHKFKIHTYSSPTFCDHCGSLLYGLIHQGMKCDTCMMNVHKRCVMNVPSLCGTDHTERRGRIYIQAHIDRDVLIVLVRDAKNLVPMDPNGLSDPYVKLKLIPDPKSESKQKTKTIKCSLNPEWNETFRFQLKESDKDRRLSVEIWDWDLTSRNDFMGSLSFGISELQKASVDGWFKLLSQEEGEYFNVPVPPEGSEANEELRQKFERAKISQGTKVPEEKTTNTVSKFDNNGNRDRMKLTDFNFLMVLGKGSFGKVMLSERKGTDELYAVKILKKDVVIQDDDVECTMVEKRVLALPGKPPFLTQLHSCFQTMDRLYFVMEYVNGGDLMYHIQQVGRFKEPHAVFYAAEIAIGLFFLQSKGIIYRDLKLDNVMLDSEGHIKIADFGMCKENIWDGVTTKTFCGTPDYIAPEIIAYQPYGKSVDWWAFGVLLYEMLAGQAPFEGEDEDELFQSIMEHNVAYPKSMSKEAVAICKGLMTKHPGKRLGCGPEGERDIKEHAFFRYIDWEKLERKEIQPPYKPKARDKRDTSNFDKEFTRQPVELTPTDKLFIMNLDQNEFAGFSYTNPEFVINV

SMILES | IC50 [1] [µM] | IC50 [2] [µM] | increase of maximal rate of contraction [4] [times] | increase of maximal rate of relaxation [4] [times] | increased maximal myocardial contractility as compared to the normal group [4] | other results
CCOC(=O)c1c(NC(C)=O)sc(/C(C)=N/O)c1-c1ccccc1 [Chemical Formula II, ethyl (5E)-2-acetylimino-5-[1-(hydroxyamino)ethylidene]-4-phenyl-thiophene-3-carboxylate] | > 100 | > 100 |  |  |  | 
CN1CCN(Cc2c3ccccc3cc3ccccc23)CC1 [Chemical Formula III, 1-(anthracen-9-ylmethyl)-4-methyl-piperazine] | 50 | > 100 |  |  |  | IC50 [3]: 25 µM
CCOC(=O)c1c(NC(=S)N2CCN(S(C)(=O)=O)CC2)sc(C)c1-c1ccccc1 [Chemical Formula IV] |  |  |  |  |  | inhibitory effect relative to that of the compound of Chemical Formula II ([3]; tested at 100 μM): about 1.2 times
CN1CCN(c2cccc3[nH]c(-c4n[nH]c5cc(-c6ccc(N)cc6)ccc45)nc23)CC1 [Chemical Formula IX] |  |  | ≥ 2 | ≥ 2 | about 2.4 times | 
CN1CCN(c2cccc3[nH]c(-c4n[nH]c5cc(-c6ccc(CN)cc6)ccc45)nc23)CC1 [Chemical Formula X] |  |  | 1.2 | 1.2 | about 1.4 times | 

From patent publication US20110245179A1, “Composition for Prevention or Treatment of Heart Failure” (priority 2008, published 2011)
